PMC10587169, “Tuning aminopolycarboxylate chelators for efficient complexation of trivalent actinides” (Scientific Reports, 2023)
Entries after “also recorded” stand apart in the source; their conditions may differ. Where two headings read alike, the source gives them in different places.

Columns and labels:
[1] = Competitive complexation liquid-liquid extraction with HDEHP; format: binding; details: competitive solvent extractions, T = 20 ± 1 °C, ±3σ
Description: (§1) Stability constants for the coordination of Eu^3+, Am^3+, Cm^3+, and Cf^3+ were also achieved by monitoring the suppression of liquid–liquid partitioning of the radiotracer due to the increasing presence of an aqueous complexant. Aqueous solutions were prepared containing sub-millimolar amounts of ligand while maintaining p[H^+] at 1.7, 1.8, 1.9, 2.0, and 2.1. Ionic strength was maintained at 2.00 M using sodium perchlorate. Aqueous complexation was balanced with the appropriate choice of HDEHP concentration in octane to allow accurate quantification of metal distribution. Non-aqueous phases were pre-equilibrated three times with 2.00 M NaClO4 at the corresponding p[H^+]. Preliminary time-dependent studies indicated the phase transfer equilibrium was attained for all measurements with H4octapa and H4pypa-peg (Figures S2 and S3 in the SI). For the mixtures traced with radioisotopes, the activity was measured using gamma spectroscopy (ORTEC GEM50P4 coaxial HPGe detector, DSPEC gamma spectrometer) for ^154Eu (123.07 keV), ^243Am (74.66 keV), and ^249Cf (388.17 keV) and liquid scintillation counting (Perkin Elmer Tri-Carb 3180 TR/SL) for ^248Cm. The ratio of radioisotope activity in the organic and aqueous phases defined the liquid–liquid distribution.
(§2) Liquid–liquid partitioning of trivalent f-elements was monitored in presence of H4octapa and H4pypa-peg using a strong liquid cation exchanger, bis–(2-ethylhexyl)phosphoric acid, HDEHP. This competitive solvent extraction methodology was used to determine the conditional stability constants for complexation of Eu^3+, Am^3+, Cm^3+, and Cf^3+ with H4octapa and H4pypa-peg. The metals, present at radiotracer concentrations ([…]), distributed between an organic phase containing HDEHP in n-octane and an aqueous phase containing the complexant at varying concentrations and aqueous acidity. The interpretation of the competitive complexation liquid–liquid distribution data (SI Tables S3 through S5 for H4octapa and S6 through S8 for H4pypa-peg) considered two complex formation equilibria as described by Eqs. (4) and (5). All collected distribution data indicated the average ligand-to-metal stoichiometry of 1.00 ± 0.04 for H4octapa and 1.00 ± 0.03 for H4pypa-peg (see SI Figures S10A and S11A). The partitioning of a trivalent metal ion as facilitated by a dimerized HDEHP cation exchanger can be expressed by Eq. (6) as quantified by the extraction constant, Kex (subscript org refers to organic-soluble species).6 M^3++3HDEHP2,org⇆MHDEHP23,org+3H^+Kex=MHDEHP23,orgH^+^3/M^3+HDEHP2,org^3
The stoichiometry for the extraction of trivalent metal ion by HDEHP was verified at 2.85 ± 0.03 by slope analysis study using ^249Cf^3+ as representative ion for H4octapa (SI Figure S10B) and 2.78 ± 0.13 for H4pypa-peg (SI Figure S11B). […]

[2] = cited from earlier work
[3] = Solubility in aqueous electrolyte media (observation); format: physicochemical
[4] = Competitive complexation liquid-liquid extraction with HDEHP; format: binding; details: competitive solvent extractions, T = 20 ± 1 °C; for logβ101 (ML), Am3+ / logβ101 (ML), Eu3+ / logβ111 (MHL), Am3+ / logβ111 (MHL), Eu3+: I = 2.00 M sodium perchlorate; for logβ101 (ML), Am3+ / logβ101 (ML), Eu3+ / logβ111 (MHL), Am3+ / logβ111 (MHL), Eu3+ / logK111, Am3+ / logK111, Eu3+: ±3σ; for logβ101 (ML), Cm3+: p[H+] variation not monitored
Description: as §1, §2
Substitution of equilibrium and extraction constants Eqs. (3)–(5) into Eq. (6) yields Eq. (8).8 DM=KexHDEHP2,org^3H^+^3/1+β101L^4-+β111L^4-H^+
At constant HDEHP concentration and p[H^+], when the distribution of the metal ion in absence of ligand is labelled as D^0, the liquid–liquid partitioning of the metal will adhere to Eq. (9),9 D^0/DM-1=β^appL^4- where β^app is the apparent stability constant as represented by β ^app = β101 + β111[H^+].
The Figs. 7A for H4octapa and Fig. 7C for H4pypa-peg show representative Eu^3+, Am^3+, and Cf^3+ sets of dependencies collected at constant aqueous acidities to determine β^app constants from the slopes of the error-weighted least-squares regression analyses. Equivalent dependencies were also collected at different p[H^+] conditions to study variation of β^app trends with p[H^+] as presented in Figs. 7B,D for H4octapa and H4pypa-peg, respectively. The distribution plots for Eu^3+, Am^3+, and Cf^3+ for H4pypa-peg clearly show variation with the changing aqueous acidity, which yielded good estimates for the conditional stability constants for the formation of ML^− and MHL(aq) (Table 5). The collected trends for Cf^3+ in the presence of H4octapa vary to a lesser extent, enabling the determination of β101 only. The p[H^+] variation was not monitored for the coordination of ^248Cm^3+ with both APC ligands due to limited availability of this radioisotope. […]

[5] = Spectrophotometric titration; format: binding; details: I = 2.0 M (Na+/H+)ClO4 at 20.0 °C, not marked potentiometry (spectrophotometric titration)

O=C(O)CN(CCN(CC(=O)O)Cc1cccc(C(=O)O)n1)Cc1cccc(C(=O)O)n1 [H4octapa, 6,6′-((ethane-1,2-diylbis–((carboxymethyl)azanediyl))bis–(methylene))dipicolinic acid]
logβ101 (ML), Cf3+ ([1]; I = 2.00 M sodium perchlorate): 20.6 (2)^^
pKa H2L2- ([2]; I = 0.15 M NaCl at 25 °C): 5.40 (1)
pKa H3L- ([2]; I = 0.15 M NaCl at 25 °C): 3.65 (1)
pKa H4L(aq) ([2]; I = 0.15 M NaCl at 25 °C): 2.97 (1)
pKa H5L+ ([2]; I = 0.15 M NaCl at 25 °C): 1.66 (1)
pKa HL3- ([2]; I = 0.15 M NaCl at 25 °C): 8.52 (1)
pKa H2L2- ([2]; I = 0.16 M NaCl at 25 °C): 5.43 (2)
pKa H3L- ([2]; I = 0.16 M NaCl at 25 °C): 3.75 (1)
pKa H4L(aq) ([2]; I = 0.16 M NaCl at 25 °C): 3.08 (1)
pKa H5L+ ([2]; I = 0.16 M NaCl at 25 °C): 2.21 (2)
pKa H6L2+ ([2]; I = 0.16 M NaCl at 25 °C): 1.61 (2)
pKa H7L3+ ([2]; I = 0.16 M NaCl at 25 °C): 0.12 (4)
pKa HL3- ([2]; I = 0.16 M NaCl at 25 °C): 8.58 (1)
solubility in high ionic strength perchlorate media ([3]; aqueous sodium perchlorate electrolyte medium, 2 M (Na+/H+)ClO4): limited; also recorded: Low solubility
logβ101 (ML), Am3+ [4]: 19.3 (6)
logβ101 (ML), Eu3+ [4]: 18.59 (2)
logβ111 (MHL), Am3+ [4]: – 21.8 (2)^^
logβ111 (MHL), Eu3+ [4]: 20.45 (2)
logβ101 (ML), Cm3+ [4]: 19.4^^
logK111, Am3+ [4]: – 2.5 (6)^^
logK111, Eu3+ [4]: 1.86 (2)

O=C(O)CN(Cc1cc(-c2cn(CCOCCOCCO)nn2)cc(CN(CC(=O)O)Cc2cccc(C(=O)O)n2)n1)Cc1cccc(C(=O)O)n1 [H4pypa-peg, 6,6'-((((4-(1-(2-(2-(2-hydroxyethoxy)ethoxy)ethyl)-1H-1,2,3-triazol-4-yl)pyridine-2,6-diyl)bis–(methylene))bis–((carboxymethyl)azanediyl))bis–(methylene)) dipicolinic acid]
logβ101 (ML), Cf3+ ([1]; I = 2.00 M sodium perchlorate): 21.0 (4)^^
logβ111 (MHL), Cf3+ ([1]; I = 2.00 M sodium perchlorate): 23.2 (2)^^
logK111, Cf3+ [1]: 2.2 (1)^^
aqueous solubility compared to unfunctionalized H4pypa ([3]; moderately acidic aqueous electrolyte mixtures): significantly improved aqueous solubility
logβ101 (ML), Am3+ [4]: 19.6 (1)^^
logβ101 (ML), Eu3+ [4]: 18.7 (2)
logβ111 (MHL), Am3+ [4]: 21.8 (1)^^
logβ111 (MHL), Eu3+ [4]: 20.6 (4)
logβ101 (ML), Cm3+ [4]: 19.8
logK111, Am3+ [4]: 2.2 (1)^^
logK111, Eu3+ [4]: 1.9 (4)

O=C(O)CN(CCN(CCN(CC(=O)O)CC(=O)O)CC(=O)O)CCN(CC(=O)O)CC(=O)O [H6ttha, triethylenetetraamine-N,N,N',N'',N''',N'''-hexaacetic acid]
logβ121 (MH2L), Nd3+ [5]: 27.7(1)
